Measurements from PubChem BioAssay (NCI).
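Step 1: Grow cells in 96-well plates. Step 2: Expose to compound for 48 hours at 5 concentrations. Step 3: Interpolate endpoints linearly; if unreached, use highest concentration. TGI is the concentration that stops growth completely.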

Columns and labels:
Assay in all cases: growth of human tumour cells (NCI), 48 h
M14 melanoma = test system: M14 melanoma
SK-MEL-2 melanoma = test system: SK-MEL-2 melanoma
NCI-H460 lung = test system: NCI-H460 lung
HCT-116 colon = test system: HCT-116 colon
OVCAR-4 ovarian = test system: OVCAR-4 ovarian
MALME-3M melanoma = test system: MALME-3M melanoma
CAKI-1 renal = test system: CAKI-1 renal
IGROV1 ovarian = test system: IGROV1 ovarian
SF-539 CNS = test system: SF-539 CNS
CCRF-CEM leukemia = test system: CCRF-CEM leukemia
SN12C renal = test system: SN12C renal
A549 NSCLC = test system: A549 NSCLC
OVCAR-3 ovarian = test system: OVCAR-3 ovarian
MOLT-4 leukemia = test system: MOLT-4 leukemia
OVCAR-8 ovarian = test system: OVCAR-8 ovarian
SK-MEL-5 melanoma = test system: SK-MEL-5 melanoma
XF 498 CNS = test system: XF 498 CNS
K-562 leukemia = test system: K-562 leukemia
U251 CNS = test system: U251 CNS
SK-OV-3 ovarian = test system: SK-OV-3 ovarian
EKVX NSCLC = test system: EKVX NSCLC
M19-MEL melanoma = test system: M19-MEL melanoma
HT29 colon = test system: HT29 colon
UACC-62 melanoma = test system: UACC-62 melanoma
SK-MEL-28 melanoma = test system: SK-MEL-28 melanoma
RXF 393 renal = test system: RXF 393 renal
UACC-257 melanoma = test system: UACC-257 melanoma
NCI-H23 lung = test system: NCI-H23 lung
SW-620 colon = test system: SW-620 colon
SNB-78 CNS = test system: SNB-78 CNS
HL-60(TB) leukemia = test system: HL-60(TB) leukemia
DMS 114 small cell lung = test system: DMS 114 small cell lung
LOX IMVI melanoma = test system: LOX IMVI melanoma
NCI-H522 lung = test system: NCI-H522 lung
786-0 renal = test system: 786-0 renal
SNB-75 CNS = test system: SNB-75 CNS
COLO 205 colon = test system: COLO 205 colon
DMS 273 small cell lung = test system: DMS 273 small cell lung
HCT-15 colon = test system: HCT-15 colon
DLD-1 colon = test system: DLD-1 colon
HCC-2998 colon = test system: HCC-2998 colon
KM12 colon = test system: KM12 colon
HOP-92 NSCLC = test system: HOP-92 NSCLC
A498 renal = test system: A498 renal
RPMI-8226 leukemia = test system: RPMI-8226 leukemia
HOP-62 NSCLC = test system: HOP-62 NSCLC
LXFL 529 NSCLC = test system: LXFL 529 NSCLC
UO-31 renal = test system: UO-31 renal
SF-295 CNS = test system: SF-295 CNS
SF-268 CNS = test system: SF-268 CNS
SNB-19 CNS = test system: SNB-19 CNS
TK-10 renal = test system: TK-10 renal
OVCAR-5 ovarian = test system: OVCAR-5 ovarian
ACHN renal = test system: ACHN renal
SR leukemia = test system: SR leukemia
NCI-H226 lung = test system: NCI-H226 lung
HOP-18 NSCLC = test system: HOP-18 NSCLC
KM20L2 colon = test system: KM20L2 colon

Compound: COC(=O)c1c(O)ccc(O)c1C(C(C)=O)C(C)=O
- TGI (M14 melanoma): > 100 µM
- TGI (SK-MEL-2 melanoma): > 100 µM
- TGI (NCI-H460 lung): > 100 µM
- TGI (HCT-116 colon): > 100 µM
- TGI (OVCAR-4 ovarian): > 100 µM
- TGI (MALME-3M melanoma): > 100 µM
- TGI (CAKI-1 renal): > 100 µM
- TGI (IGROV1 ovarian): > 100 µM
- TGI (SF-539 CNS): > 100 µM
- TGI (CCRF-CEM leukemia): > 100 µM
- TGI (SN12C renal): > 100 µM
- TGI (A549 NSCLC): > 100 µM
- TGI (OVCAR-3 ovarian): > 100 µM
- TGI (MOLT-4 leukemia): > 100 µM
- TGI (OVCAR-8 ovarian): > 100 µM
- TGI (SK-MEL-5 melanoma): > 100 µM
- TGI (XF 498 CNS): > 100 µM
- TGI (K-562 leukemia): > 100 µM
- TGI (U251 CNS): > 100 µM
- TGI (SK-OV-3 ovarian): > 100 µM
- TGI (EKVX NSCLC): > 100 µM
- TGI (M19-MEL melanoma): > 100 µM
- TGI (HT29 colon): > 100 µM
- TGI (UACC-62 melanoma): > 100 µM
- TGI (SK-MEL-28 melanoma): > 100 µM
- TGI (RXF 393 renal): > 100 µM
- TGI (UACC-257 melanoma): > 100 µM
- TGI (NCI-H23 lung): > 100 µM
- TGI (SW-620 colon): > 100 µM
- TGI (SNB-78 CNS): > 100 µM
- TGI (HL-60(TB) leukemia): > 100 µM
- TGI (DMS 114 small cell lung): > 100 µM
- TGI (LOX IMVI melanoma): > 100 µM
- TGI (NCI-H522 lung): > 100 µM
- TGI (786-0 renal): > 100 µM
- TGI (SNB-75 CNS): > 100 µM
- TGI (COLO 205 colon): > 100 µM
- TGI (DMS 273 small cell lung): > 100 µM
- TGI (HCT-15 colon): > 100 µM
- TGI (DLD-1 colon): > 100 µM
- TGI (HCC-2998 colon): > 100 µM
- TGI (KM12 colon): > 100 µM
- TGI (HOP-92 NSCLC): > 100 µM
- TGI (A498 renal): > 100 µM
- TGI (RPMI-8226 leukemia): > 100 µM
- TGI (HOP-62 NSCLC): > 100 µM
- TGI (LXFL 529 NSCLC): > 100 µM
- TGI (UO-31 renal): > 100 µM
- TGI (SF-295 CNS): > 100 µM
- TGI (SF-268 CNS): > 100 µM
- TGI (SNB-19 CNS): > 100 µM
- TGI (TK-10 renal): > 100 µM

Compound: CCOC(=O)C1=C(OC(OCC)C([Se]c2ccccc2)C(C)C)CCC1 (stereo not drawn)
- TGI (M14 melanoma): 43.6 µM
- TGI (SK-MEL-2 melanoma): 62 µM
- TGI (NCI-H460 lung): 31.4 µM
- TGI (HCT-116 colon): 26 µM
- TGI (OVCAR-4 ovarian): 32.9 µM
- TGI (MALME-3M melanoma): 81.9 µM
- TGI (CAKI-1 renal): > 100 µM
- TGI (IGROV1 ovarian): 52.4 µM
- TGI (SF-539 CNS): 30.8 µM
- TGI (CCRF-CEM leukemia): 27.8 µM
- TGI (SN12C renal): 25.1 µM
- TGI (A549 NSCLC): > 100 µM
- TGI (OVCAR-3 ovarian): 40 µM
- TGI (MOLT-4 leukemia): 45.4 µM
- TGI (OVCAR-8 ovarian): 27.4 µM
- TGI (SK-MEL-5 melanoma): 28.8 µM
- TGI (XF 498 CNS): 26.4 µM
- TGI (OVCAR-5 ovarian): 59.4 µM
- TGI (K-562 leukemia): > 100 µM
- TGI (U251 CNS): 16.6 µM
- TGI (ACHN renal): 62 µM
- TGI (SK-OV-3 ovarian): > 100 µM
- TGI (EKVX NSCLC): 46.7 µM
- TGI (M19-MEL melanoma): 34.9 µM
- TGI (HT29 colon): 41.7 µM
- TGI (UACC-62 melanoma): 33.6 µM
- TGI (SK-MEL-28 melanoma): 39.4 µM
- TGI (RXF 393 renal): 21.9 µM
- TGI (UACC-257 melanoma): 75.4 µM
- TGI (NCI-H23 lung): 22.3 µM
- TGI (SNB-78 CNS): 38.8 µM
- TGI (SR leukemia): 15.4 µM
- TGI (NCI-H226 lung): 37.4 µM
- TGI (HL-60(TB) leukemia): 11.2 µM
- TGI (LOX IMVI melanoma): 6.93 µM
- TGI (NCI-H522 lung): 20.2 µM
- TGI (786-0 renal): 20.6 µM
- TGI (SNB-75 CNS): 62.5 µM
- TGI (COLO 205 colon): 31.7 µM
- TGI (DMS 273 small cell lung): 20 µM
- TGI (HCT-15 colon): 29.4 µM
- TGI (DLD-1 colon): 33.8 µM
- TGI (HCC-2998 colon): > 100 µM
- TGI (KM12 colon): > 100 µM
- TGI (HOP-92 NSCLC): 51.1 µM
- TGI (A498 renal): > 100 µM
- TGI (RPMI-8226 leukemia): 38.5 µM
- TGI (HOP-18 NSCLC): 41.3 µM
- TGI (HOP-62 NSCLC): > 100 µM
- TGI (LXFL 529 NSCLC): 29.5 µM
- TGI (KM20L2 colon): 63.3 µM
- TGI (UO-31 renal): 61 µM
- TGI (SF-295 CNS): 44.5 µM
- TGI (SF-268 CNS): 20 µM
- TGI (SNB-19 CNS): > 100 µM
- TGI (TK-10 renal): > 100 µM
